Data as given in patent US20240376094A2, “SELECTIVE BCL-XL PROTAC COMPOUNDS AND METHODS OF USE” (Les Laboratoires Servier, priority 2021, published 2024).

Legend:
Type in all cases: cell-based
MOLT-4 cells [1] = assay: MOLT-4 cell viability, MTT assay; conditions: Homo sapiens, MOLT-4, 48 h
Method in brief: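 MOLT-4 cells in RPMI 1640 with 10% FBS were exposed to compounds for 48 h at 9 concentrations (3.16-fold dilutions, triplicates). After 4 h with MTT and overnight SDS/HCl solubilisation, absorbance was read at 540 nm. IC50 came from four-parameter fits versus control, as the mean of ≥2 independent experiments.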

Bcl-xL = molecular target: T1, Bcl-xL (Homo sapiens, UniProt Q07817); assay: HCT116 Bcl-xL degradation, capillary-based immunoassay (WES); conditions: for DC50: HCT116, 24 h, 9-point serial dilution; for remaining activity at 0.01 µM / remaining activity at 0.1 µM: HCT-116, 24 h, % of untreated cells; for remaining activity at 0.01 µM: HCT116, 10 nM; for remaining activity at 0.1 µM: HCT116, 100 nM
T1 construct: Measured levels of Bcl-xL protein of HCT116 cells treated with the tested compounds; host or cells: HCT116
T1 sequence (Q07817 whole entry): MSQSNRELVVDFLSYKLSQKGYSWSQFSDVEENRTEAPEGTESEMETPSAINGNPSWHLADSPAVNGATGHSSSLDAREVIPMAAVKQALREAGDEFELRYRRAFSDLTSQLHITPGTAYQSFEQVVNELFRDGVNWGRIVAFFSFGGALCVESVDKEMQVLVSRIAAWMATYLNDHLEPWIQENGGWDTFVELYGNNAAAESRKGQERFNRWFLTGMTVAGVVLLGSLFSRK
Method in brief: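 HCT116 cells treated 24 h with compound at 10/100 nM and/or 9-point dilution (quadruplicates), then lysed. Bcl-xL measured by capillary WES immunoassay, normalized to cofilin and expressed as % of untreated cells. DC50 from four-parameter curve fit.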

[2] = test system: EBC-1 lung cancer cell line; assay: EBC-1 cell proliferation, CellTiter-Glo assay; conditions: Homo sapiens, 120 h; Ebc-1 cell viability, CTG assay, 5 days of treatment; read-out: CTG 5 day Ebc1 GI50
Method in brief: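 EBC-1 cells seeded at 1000 per well overnight, then exposed to 10-point dilutions (0.508 nM–10 μM final) for 5 days at 37 °C, in triplicate. ATP luminescence by CellTiter-Glo, normalised to untreated wells; GI50 from four-parameter logistic fit, runs valid only with at least one doubling.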

HiBiT-tagged BCL-xL = molecular target: T2, HiBiT-tagged BCL-xL (Homo sapiens, UniProt Q07817); assay: NCI-H1650 BCL-xL protein levels, Nano-Glo HiBiT Lytic Detection; conditions: NCI-H1650 expressing HiBiT-tagged BCL-xL, overnight incubation, read-out: Bcl-xl HIBIT NCIH1650 DC50
T2 construct: expressed in transfected cells; host or cells: NCI-H1650 (ATCC No. CRL-5883), engineered HiBiT cell line
T2 sequence (Q07817 whole entry): as above
Method in brief: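 NCI-H1650 cells expressing HiBiT-tagged BCL-xL (5000/well) were treated overnight at 37° C with 10 concentrations, final 0.508 nM-10 μM, in triplicate. Remaining BCL-xL measured by Nano-Glo HiBiT lytic luminescence, normalized to untreated cells; 50% values by four-parameter logistic fit.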

MOLT-4 cells [3] = assay: MOLT-4 cell viability, CTG assay; conditions: Homo sapiens, MOLT-4, 48 h
Method in brief: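 Cells grown in RPMI 1640 with 10% FBS at 37° C, 5% CO2, then exposed to compounds for 48 h (11-point 5-fold dilution, triplicates). ATP measured by CellTiter-Glo luminescence; IC50 from four-parameter fit versus control, mean of ≥2 independent experiments.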

Compound `Cc1ncsc1-c1ccc([C@H](C)NC(=O)[C@@H]2CC(O)CN2C(=O)[C@@H](NC(=O)CCCCCCCCCCCCCCN(C)CCOC23CC4(C)CC(C)(CC(Cn5ncc(-c6ccc(N7CCCc8c7nnc(Nc7nc9ccccc9s7)c8C)nc6C(=O)O)c5C)(C4)C2)C3)C(C)(C)C)cc1` (stereo in doubt) [Example 7, 6-[3-(1,3-benzothiazol-2-ylamino)-4-methyl-6,7-dihydro-5H-pyrido[2,3-c]pyridazin-8-yl]-3-[1-[[3-[2-[[15-[[(1S)-1-[(2S,4R)-4-hydroxy-2-[[(1S)-1-[4-(4-methylthiazol-5-yl)phenyl]ethyl]carbamoyl]pyrrolidine-1-carbonyl]-2,2-dimethyl-propyl]amino]-15-oxo-pentadecyl]-methyl-amino]ethoxy]-5,7-dimethyl-1-adamantyl]methyl]-5-methyl-pyrazol-4-yl]pyridine-2-carboxylic acid] has an IC50 (MOLT-4 cells [1]) of 0.493 nM, a DC50 (Bcl-xL) of 0.742 nM and a remaining activity at 0.01 µM (Bcl-xL) of 52%. The remaining activity at 0.1 µM (Bcl-xL) was 34%, the GI50 [2] was 2 nM and the DC50 (HiBiT-tagged BCL-xL) was 1 nM.

In the case of `Cc1ncsc1-c1ccc([C@H](C)NC(=O)C2C[C@@H](O)CN2C(=O)C(NC(=O)CCCCCCC(=O)N2CCN(CC#Cc3ccc(OCCCc4sc(N5CCCc6c5nnc(Nc5nc7ccccc7s5)c6C)nc4C(=O)O)c(F)c3)CC2)C(C)(C)C)cc1` (stereo in doubt) [Example 16, 2-[3-(1,3-benzothiazol-2-ylamino)-4-methyl-6,7-dihydro-5H-pyrido[2,3-c]pyridazin-8-yl]-5-[3-[2-fluoro-4-[3-[4-[8-[[(1S)-1-[(2S,4R)-4-hydroxy-2-[[(1S)-1-[4-(4-methylthiazol-5-yl)phenyl]ethyl]carbamoyl]pyrrolidine-1-carbonyl]-2,2-dimethyl-propyl]amino]-8-oxo-octanoyl]piperazin-1-yl]prop-1-ynyl]phenoxy]propyl]thiazole-4-carboxylic acid], the IC50 (MOLT-4 cells [1]) is reported as 1.07 nM, the DC50 (Bcl-xL) is reported as 0.47 nM and the remaining activity at 0.01 µM (Bcl-xL) is reported as 7%. The remaining activity at 0.1 µM (Bcl-xL) was 7%, the GI50 [2] was 9 nM and the DC50 (HiBiT-tagged BCL-xL) was 3 nM.

Work on `Cc1ncsc1-c1ccc([C@H](C)NC(=O)C2C[C@@H](O)CN2C(=O)C(NC(=O)CCCCCC(=O)N2CCN(CC#Cc3ccc(OCCCc4sc(N5CCCc6c5nnc(Nc5nc7ccccc7s5)c6C)nc4C(=O)O)c(F)c3)CC2)C(C)(C)C)cc1` (stereo in doubt) [Example 17, 2-[3-(1,3-benzothiazol-2-ylamino)-4-methyl-6,7-dihydro-5H-pyrido[2,3-c]pyridazin-8-yl]-5-[3-[2-fluoro-4-[3-[4-[7-[[(1S)-1-[(2S,4R)-4-hydroxy-2-[[(1S)-1-[4-(4-methylthiazol-5-yl)phenyl]ethyl]carbamoyl]pyrrolidine-1-carbonyl]-2,2-dimethyl-propyl]amino]-7-oxo-heptanoyl]piperazin-1-yl]prop-1-ynyl]phenoxy]propyl] thiazole-4-carboxylic acid] yielded an IC50 (MOLT-4 cells [1]) of 3.84 nM, a DC50 (Bcl-xL) of 0.488 nM and a remaining activity at 0.01 µM (Bcl-xL) of 32%. It also gave a remaining activity at 0.1 µM (Bcl-xL) of 9%, a GI50 [2] of 31 nM and a DC50 (HiBiT-tagged BCL-xL) of over 1670 nM.

With `Cc1ncsc1-c1ccc([C@H](C)NC(=O)[C@@H]2C[C@@H](O)CN2C(=O)[C@@H](NC(=O)CCCCCCCCCCCN(C)CCOC23CC4(C)CC(C)(CC(Cn5ncc(-c6ccc(N7CCCc8c7nnc(Nc7nc9ccccc9s7)c8C)nc6C(=O)O)c5C)(C4)C2)C3)C(C)(C)C)cc1` [Example 2, 6-[3-(1,3-benzothiazol-2-ylamino)-4-methyl-6,7-dihydro-5H-pyrido[2,3-c]pyridazin-8-yl]-3-[1-[[3-[2-[[12-[[(1S)-1-[(2S,4R)-4-hydroxy-2-[[(1S)-1-[4-(4-methylthiazol-5-yl)phenyl]ethyl]carbamoyl]pyrrolidine-1-carbonyl]-2,2-dimethyl-propyl]amino]-12-oxo-dodecyl]-methyl-amino]ethoxy]-5,7-dimethyl-1-adamantyl]methyl]-5-methyl-pyrazol-4-yl]pyridine-2-carboxylic acid] the IC50 (MOLT-4 cells [1]) was 1.06 nM, the DC50 (Bcl-xL) was 0.286 nM and the remaining activity at 0.01 µM (Bcl-xL) was 26%. It also gave a remaining activity at 0.1 µM (Bcl-xL) of 11%, a GI50 [2] of 13 nM and a DC50 (HiBiT-tagged BCL-xL) of 1 nM.

`Cc1ncsc1-c1ccc([C@H](C)NC(=O)[C@@H]2C[C@@H](O)CN2C(=O)[C@@H](NC(=O)CCCCCCN(C)CCOC23CC4(C)CC(C)(CC(Cn5ncc(-c6ccc(N7CCCc8c7nnc(Nc7nc9ccccc9s7)c8C)nc6C(=O)O)c5C)(C4)C2)C3)C(C)(C)C)cc1` [Example 3, 6-[3-(1,3-benzothiazol-2-ylamino)-4-methyl-6,7-dihydro-5H-pyrido[2,3-c]pyridazin-8-yl]-3-[1-[[3-[2-[[7-[[(1S)-1-[(2S,4R)-4-hydroxy-2-[[(1S)-1-[4-(4-methylthiazol-5-yl)phenyl]ethyl]carbamoyl]pyrrolidine-1-carbonyl]-2,2-dimethyl-propyl]amino]-7-oxo-heptyl]-methyl-amino]ethoxy]-5,7-dimethyl-1-adamantyl]methyl]-5-methyl-pyrazol-4-yl]pyridine-2-carboxylic acid] was tested, and the IC50 (MOLT-4 cells [1]) was 32.1 nM, the DC50 (Bcl-xL) was 4.21 nM and the remaining activity at 0.01 µM (Bcl-xL) was 23%. For the same compound, the remaining activity at 0.1 µM (Bcl-xL) was 17%, the GI50 [2] was 9 nM and the DC50 (HiBiT-tagged BCL-xL) was 3 nM.

With `Cc1ncsc1-c1ccc([C@H](C)NC(=O)[C@@H]2C[C@@H](O)CN2C(=O)[C@@H](NC(=O)CCCCCCCCCCCCCN(C)CCOC23CC4(C)CC(C)(CC(Cn5ncc(-c6ccc(N7CCCc8c7nnc(Nc7nc9ccccc9s7)c8C)nc6C(=O)O)c5C)(C4)C2)C3)C(C)(C)C)cc1` [Example 4, 6-[3-(1,3-benzothiazol-2-ylamino)-4-methyl-6,7-dihydro-5H-pyrido[2,3-c]pyridazin-8-yl]-3-[1-[[3-[2-[[14-[[(1S)-1-[(2S,4R)-4-hydroxy-2-[[(1S)-1-[4-(4-methylthiazol-5-yl)phenyl]ethyl]carbamoyl]pyrrolidine-1-carbonyl]-2,2-dimethyl-propyl]amino]-14-oxo-tetradecyl]-methyl-amino]ethoxy]-5,7-dimethyl-1-adamantyl]methyl]-5-methyl-pyrazol-4-yl]pyridine-2-carboxylic acid] the IC50 (MOLT-4 cells [1]) was 0.85 nM, the DC50 (Bcl-xL) was 0.279 nM and the remaining activity at 0.01 µM (Bcl-xL) was 33%. The remaining activity at 0.1 µM (Bcl-xL) was 14%, the GI50 [2] was 1 nM and the DC50 (HiBiT-tagged BCL-xL) was 0.4 nM.

With `Cc1cc(N(CCCCCn2cc(COCCOCCNC(=O)COc3cccc4c3C(=O)N(C3CCC(=O)NC3=O)C4=O)nn2)c2ccc(-c3cnn(CC45CC6(C)CC(C)(C4)CC(OCCN(C)C)(C6)C5)c3C)c(C(=O)O)n2)nnc1Nc1nc2ccccc2s1` (stereo not shown) [Example 65, 6-[[6-(1,3-benzothiazol-2-ylamino)-5-methyl-pyridazin-3-yl]-[5-[4-[2-[2-[[2-[2-(2,6-dioxo-3-piperidyl)-1,3-dioxo-isoindolin-4-yl]oxyacetyl]amino]ethoxy]ethoxymethyl]triazol-1-yl]pentyl]amino]-3-[1-[[3-[2-(dimethylamino)ethoxy]-5,7-dimethyl-1-adamantyl]methyl]-5-methyl-pyrazol-4-yl]pyridine-2-carboxylic acid] the IC50 (MOLT-4 cells [1]) was 156 nM, the IC50 (MOLT-4 cells [3]) was 140 nM and the remaining activity at 0.01 µM (Bcl-xL) was 90%. The remaining activity at 0.1 µM (Bcl-xL) was 78%.

`Cc1ncsc1-c1ccc(CNC(=O)[C@@H]2C[C@@H](O)CN2C(=O)[C@@H](NC(=O)C2(F)CC2)C(C)(C)C)c(OCCCCCCCCN(C)CCOC23CC4(C)CC(C)(CC(Cn5ncc(-c6ccc(N7CCCc8c7nnc(Nc7nc9ccccc9s7)c8C)nc6C(=O)O)c5C)(C4)C2)C3)c1` [Example 138, 6-[3-(1,3-benzothiazol-2-ylamino)-4-methyl-6,7-dihydro-5H-pyrido[2,3-c]pyridazin-8-yl]-3-[1-[[3-[2-[8-[2-[[[(2S,4R)-1-[(2S)-2-[(1-fluorocyclopropanecarbonyl)amino]-3,3-dimethyl-butanoyl]-4-hydroxy-pyrrolidine-2-carbonyl]amino]methyl]-5-(4-methylthiazol-5-yl)phenoxy]octyl-methyl-amino]ethoxy]-5,7-dimethyl-1-adamantyl]methyl]-5-methyl-pyrazol-4-yl]pyridine-2-carboxylic acid] showed an IC50 (MOLT-4 cells [1]) of 3.31 nM, a DC50 (Bcl-xL) of 21.2 nM and a DC50 (HiBiT-tagged BCL-xL) of over 1670 nM.
